What was measured:
HIT T-15 cells [1] = assay: Amylin release from HIT T-15 cells; type: cell-based, hamster
Experimental: (§1) HIT T-15 cells (HIT cells; American Type Tissue Collection, Rockville, MD; R. F. Santerre, et al. (1981) Proc. Nat. Acad. Sci. USA 78, 4339-4343.) were subcultured weekly in Ham's F-12 medium (Irvine Scientific, Santa Ana, Calif.) containing 10% horse serum (Gemini Bioproducts, Calabasas, Calif.), 2.5% fetal bovine serum (FBS; Gemini), 2 mM L-glutamine, and 10.0 mM glucose. Cells were maintained at 37° C. and 5% CO2 / 95% humidified air and medium was replaced every 2 to 3 days. All experiments were performed with cells from passages 66 to 71.
(§2) Amylin and insulin secretion were measured using reagents of analytical grade unless otherwise indicated. The secretion medium was a Krebs-Ringer buffer (KRB) containing 119 mM NaCl, 4.74 mM KCl, 2,54 mM CaCl2, 1.19 mM MgSO4, 1.19 mM KH2 PO4, 25 mM NaHCO3, 10 mM HEPES and 0.1% protease-free bovine serum albumin (Cohn fraction V; Sigma Chemical Co., St. Louis Mo.) at pH 7.4. Glibenclamide (Sigma) was initially dissolved in ethanol (50 mg/ml) then diluted to working concentrations in KRB. […] Tolbutamide (Sigma) was initially dissolved in dimethylsulfoxide (50 mg/ml). […] Metformin (Sigma) was diluted in KRB.
(§3) Five days before each secretion study cells were subcultured at 0.26×10^6 cells/0.8 ml medium/well in 24-well tissue culture plates (Corning Glass Works, Corning N.Y.). Medium was replaced on day 3. On day 5 cells were washed twice with 1.0 ml KRB then incubated in 1.0 ml KRB (30 minutes, 37° C.) in equilibrium with air. Cells were washed twice more prior to addition of 0.5 ml KRB containing the indicated concentrations of glucose, metformin, tolbutamide and glibenclamide. After a 60 minute incubation with test substance or substances, supernatants were centrifuged (5 minutes, 500×g, 5° C.; GPKR centrifuge, Beckman Instruments, Inc., Palo Alto, Calif.) to remove cell debris, then stored in polypropylene micro test tubes (Brinkman Instrument Co., Westbury, N.Y.) at -20° C. until analyzed by radioimmunoassay. Supernatants were analyzed for insulin and amylin content within one week of collection. Three wells per plate were randomly selected for cell quantitation. Cells were incubated with 75 μg trypsin and 30 μg EDTA in 150 μl normal saline (8 minutes, 37° C.), then counted on a Coulter Counter (Model Zf, Coulter Electronics, Hialeah, Fla.).
(§4) Immunoreactive insulin content in supernatants was measured using a commercial radioimmunoassay (IM.78; Amersham, Arlington Heights, Ill.). […] The radioimmunoassay for immunoreactive amylin was as follows. Assay diluent was phosphate-buffered saline (PBS; 137 mM NaCl, 2.68 mM KCl, 1.47 mM KH2 PO4, 6.65 mM Na2 HPO4) containing 0.1% Triton-X 100 (v/v), 0.01% NaN3 (w/v), and 0.1% gelatin (v/v; teleostean, 45% aqueous solution, Sigma) at pH 7.4. All incubations were performed at 4° C. ^125 I-[Tyr 37]-human synthetic amylin tracer was iodinated by the chloramine-T method and purified on a C18 Sep-Pak (Waters Associates, Milford, Mass.). Specific activity was approximately 500 μCi/μg.
Standards and unknowns were run in triplicate or duplicate respectively. After an 18 hour incubation, 100 μl of tracer containing 20,000 dpm was added and samples were incubated an additional 18 hours. To ensure complete immunoprecipitation of amylin:antibody complexes, 100 μl of rabbit gamma globulin (0.35 mg/ml, Scantibodies Laboratory, Santee, Calif.) and 100 μl of goat anti-rabbit gamma globulin (0.50 mg/ml, purified grade; Scantibodies) were added. After a 15 minute incubation, 1.0 ml 2% polyethylene glycol (w/v. MW 8,000; Sigma) in assay buffer was added and samples were centrifuged (30 minutes, 1500×g, 5° C.). Samples were decanted and pellets were counted on a gamma counter (model 1277; LKB Wallac, Turku, Finland).
Data in FIGS. 3 and 4 are shown as the mean±S.D. of 4 replicate samples.

HIT T-15 cells [2] = assay: Amylin/insulin (A/I) secretion ratio of HIT T-15 cells; type: cell-based, hamster
Experimental: as §1, with “Md.)” for “MD; R. F. Santerre, et al. (1981) Proc. Nat. Acad. Sci. USA 78, 4339-4343.)”, “L-glutamine, 10^5 IU penicillin G/1, 100 mg streptomycin/1” for “L-glutamine,”, “C02/” for “CO2 /”, “62” for “66”
Five days before each secretion study, cells were subcultured at 0.26×10^6 cells per 0.8 ml medium per well in 24-well tissue culture plates. Medium was replaced on day 3. On day 5 cells were washed twice with […] 1.0 ml Krebs-Ringer buffer (KRB) containing 119 mM NaCl, 4.74 mM KCl, 2.54 mM CaCl2, 1.19 mM KH2 PO4, 25 mM NaHCO3, 10 mM HEPES and 0.1% protease-free bovine serum albumin (Cohn fraction V; Sigma Chemical Co., St. Louis Mo.) at pH 7.4. After washing 1.0 ml KRB was added and plates were incubated for 30 minutes at 37° C. in equilibrium with air. […] After a 60 minute incubation with test substance, supernatants were centrifuged to remove cell debris, then stored at -20° C. Supernatants were analyzed for insulin and amylin content by radioimmunoassay within one week of collection. Three wells per plate were trypsinized and cells per well were quantitated using a Coulter Counter (Model Zf, Coulter Electronics, Hialeah, Fla.). Data are expressed as the percentage change in pmoles of hormone released/10^6 cells, relative to controls (absence of test substance) or as the moles of amylin released/mole of insulin/10^6 cells/hour (A/I ratio).
Immunoreactive insulin content in supernatants was measured using a commercial radioimmunoassay (IM.78; Amersham, Arlington Heights, Ill.). Human insulin standards were prepared in KRB. […] The radioimmunoassay for immunoreactive amylin was as described in Example 7 above.

[3] = system: isolated rat islets of Langerhans; assay: Glucose-stimulated insulin secretion from isolated rat islets of Langerhans; type: cell-based; conditions: substance 650 nmol/L; glucose 10 mmol/L
Experimental: The following experiments illustrate the fact that subpeptides of amylin can act to reduce the amount of insulin produced by isolated islets of Langerhans in response to a standard glucose challenge. Similar results have been obtained using whole amylin. All experiments were performed by known methods used in experimental practice. See, e.g., Lacey P. E., and Kostianovsky M., Method for the Isolation of Intact Islets of Lanaerhans from the Rat Pancreas. Diabetes 1967; 16:35-39.
Briefly, rats were killed, and islets of Langerhans were isolated from their pancreases. Experiments were performed either with freshly isolated islets or after overnight incubation of islets (23 h) in standard culture medium and conditions at 37° C. Synthetic amylin peptide 27-37 or synthetic calcitonin gene related peptide (CGRP) was dissolved in a 1.0 mmol/L citric acid/sodium citrate buffer, pH 3.0, and the concentration of the amylin 27-37 was verified by quantitative amino acid analysis. See, e.g., Cooper G. J. S. et al., Proc Natl Acad Sci USA 1987; 84:8628-8632. […] Stimulation of islets was carried out at the standard stimulatory glucose concentration of 10 mmol/L.
Production of insulin is expressed as μU/islet/h. All experiments were performed with five replicates per point. The integrity of the islet response was assessed by comparing the responses after stimulation of different aliquots of islets by two and ten mmol/L glucose, respectively, and the strength of the inhibitory response was judged against that induced by 1 μg/ml (650 nmol/L) somatostatin. Somatostatin is a 14 amino acid peptide which is a known, potent inhibitor of the insulin secretory response of islet B-cells to glucose. Arimura A. Biomed res1981; 2:233-257. […] Petterson M., Ahren B., Bottcher G., Sundler F., Endocrinology 1986; 119:865-869.
The results are shown in TABLE 5 below and all results are expressed as standard error of the mean (s.e.m.). The significance of differences between the means of groups is assessed by the t-test. The result of stimulation by 10 mmol/L glucose is compared with the results of stimulation at 2 mmol/L glucose. In all other experimental conditions, the significance of the inhibitory effect is measured against the effect of 10 mmol/L glucose alone.

HIT T-15 cells [4] = assay: Insulin release from HIT T-15 cells; type: cell-based, hamster
Experimental: as §1, §2, §3, §4
Data in FIGS. 3 and 4 are shown as the mean±S.D. of 4 replicate samples. An unpaired Student's t-test was used to compare secretion in the absence and presence of hypoglycemic agent (Statview 512+ program; Brain Power, Inc., Calabasas, Calif.).
as §1, with “Md.)” for “MD; R. F. Santerre, et al. (1981) Proc. Nat. Acad. Sci. USA 78, 4339-4343.)”, “L-glutamine, 10^5 IU penicillin G/1, 100 mg streptomycin/1” for “L-glutamine,”, “C02/” for “CO2 /”, “62” for “66”

[5] = target: T1, insulin receptor on red blood cells (Homo sapiens, UniProt P06213); assay: Displacement of insulin from its receptor on red blood cells; type: binding
T1 construct: endogenous in cells; host or cells: red blood cells

[6] = cells challenged with 10 mM glucose plus 15 mM arginine
[7] = 10 mM glucose or 15 mM arginine alone or in combination, n=3

In the case of `C[C@H](N)C(=O)NCC(=O)N[C@H]1CSSC[C@@H](C(=O)O)NC(=O)[C@H](CO)NC(=O)[C@H]([C@@H](C)O)NC(=O)[C@H](Cc2ccccc2)NC(=O)[C@H]([C@@H](C)O)NC(=O)[C@H](CCCCN)NC(=O)[C@H](Cc2c[nH]c3ccccc23)NC(=O)[C@H](Cc2ccccc2)NC(=O)[C@H](Cc2ccccc2)NC(=O)[C@H](CC(N)=O)NC(=O)[C@H](CCCCN)NC1=O` [Somatostatin], the “Effect on amylin release (in words)” value (HIT T-15 cells [1]; [6]) is reported as “suppressed both amylin and insulin release”, the A/I ratio (HIT T-15 cells [2]; over the somatostatin concentration range tested, 10 mM glucose plus 15 mM arginine) is reported as 0.36±0.02 and the Insulin production [3] is reported as 44 μU/islet/hr. The “Relative insulin secretion inhibition (percentage by which insulin production is reduced from control)” value [3] was 45% and the “Effect on insulin release (in words)” value (HIT T-15 cells [4]; [6]) was “suppressed both amylin and insulin release”.
`N=C(N)NCCC[C@H](N)C(=O)O` [arginine] was tested, and the “Effect on amylin secretion (in words)” value (HIT T-15 cells [1]; increasing arginine, 60 min) was “stimulated amylin and insulin secretion in a dose-dependent manner”, the A/I ratio (HIT T-15 cells [2]; [7]) was 0.41±0.05 and the “Mean A/I ratio” value (HIT T-15 cells [2]; over the arginine concentration range tested) was 0.44±0.02. For the same compound, the “Effect on insulin secretion (in words)” value (HIT T-15 cells [4]; increasing arginine, 60 min) was “stimulated amylin and insulin secretion in a dose-dependent manner”.
With `O=C[C@H](O)[C@@H](O)[C@H](O)[C@H](O)CO` [glucose] the “Increase in secretion of amylin” value (HIT T-15 cells [1]; 10 mM glucose, control conditions) was 2.5 to 4 fold, the “Concentration of maximum amylin secretion” value (HIT T-15 cells [1]; 60 min incubation) was 20 mM and the EC50 (HIT T-15 cells [1]; Mesocricetus auratus, HIT-T15, 1 h, 60 min incubation, read-out: Half-maximal response (EC50), amylin secretion) was ~2000 µM. The A/I ratio (HIT T-15 cells [2]; [7]) was 0.32±0.01, the “Increase in insulin secretion” value (HIT T-15 cells [4]; 10 mM glucose, control (no drug) conditions) was 4 to 5 fold and the “Concentration of maximum insulin secretion” value (HIT T-15 cells [4]; 60 min incubation) was 20 mM. For the same compound, the EC50 (HIT T-15 cells [4]; Mesocricetus auratus, HIT-T15, 1 h, 60 min incubation, read-out: Half-maximal response (EC50), insulin secretion) was ~2000 µM.
For “amylin: 37-residue peptide hormone from pancreatic amyloid; preparation not specified at this place (KCNTATCATQRLANFLVHSSNNFGAILSSTNVGSNTY; Islet amyloid polypeptide; UniProt P10997 34-70, looked up)”, the “Displacement of insulin from its receptor (in words)” value [5] was “not capable of significantly displacing insulin”.

Source: patent US5260275A, “Hypoglycemics” (Amylin Pharmaceuticals, Inc., priority 1990, dated 1993)
